Measurements published in paper PMC11187126, “Structure and dynamics of the pyroglutamylated RF-amide peptide QRFP receptor GPR103” (Nature Communications, 2024).
Like-named read-outs stand apart in the source and are kept apart here. No end group written: not given here.

Target: T1, GPR103 E297^6.59A (Homo sapiens, UniProt Q96P65, E297A)
T1 construct: we used human full-length QRFPR-encoding plasmids; expressed in transfected cells; host or cells: HEK293 cells (HEK293A in the flow cytometry section), pCAGGS vector
T1 sequence (Q96P65 1-431 E297A): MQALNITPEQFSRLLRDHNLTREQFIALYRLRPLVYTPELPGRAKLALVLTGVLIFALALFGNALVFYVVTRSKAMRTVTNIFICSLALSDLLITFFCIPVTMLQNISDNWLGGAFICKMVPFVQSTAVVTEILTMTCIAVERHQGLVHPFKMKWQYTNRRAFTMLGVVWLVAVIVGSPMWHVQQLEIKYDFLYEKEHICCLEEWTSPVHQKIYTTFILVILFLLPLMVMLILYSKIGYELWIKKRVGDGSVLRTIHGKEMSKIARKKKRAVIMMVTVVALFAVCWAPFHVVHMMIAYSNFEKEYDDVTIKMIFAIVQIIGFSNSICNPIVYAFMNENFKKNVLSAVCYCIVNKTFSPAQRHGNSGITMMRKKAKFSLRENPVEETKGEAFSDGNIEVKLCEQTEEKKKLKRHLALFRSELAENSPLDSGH
Assay: TGFα shedding assay; Exp. level >WT (1:1)
Type: cell-based

Emax (Exp. #1): 106.77 % WT
Emax (Exp. #2): 105.91 % WT
Emax (Exp. #3): 110.91 % WT
Emax (mean, read-out: Emax): 108%
EC50 (n = 3): 28.2 nM
Emax (n = 3, read-out: Emax): 112 ± 1.3%
Substance: TSGPLGNLAEELNGYSRKKGGFSFRF-NH2 [QRFP26]
